The values below come from EPA's ToxValDB 9.5 (doi:10.2903/j.efsa.2006.69r).

One series has as its system Pimephales promelas. Particulars: chronic/long-term; duration: 32 days.
For a further series, the system named is Lepomis macrochirus. Particulars: acute; duration: 96 hours; mortality.
For a further series, the system named is Daphnia magna. Particulars: chronic/long-term; duration: 21 days.
The test system of another series is Brassica rapa. Particulars: acute; duration: 21 days; seedling emergence.
Another series relates to Colinus virginianus. Particulars: short-term; oral; diet; reproduction.
Another series concerns Rattus norvegicus. Particulars: for LD50: acute.
For series [1] the following is noted: subchronic; duration: 56 days.
Another series relates to Apis mellifera. Particulars: acute, mortality.
Another series concerns Canidae. Particulars: oral, Dog Other, neurology.
Another series deals with Aphidius rhopalosiphi. Kind of series: LR50; higher = less toxic. Particulars: not reported; mortality.
The mark [2] stands for this setting: short-term, oral, feed, mortality.

Some results are limits rather than exact numbers.

Turning to `CNC(=O)Oc1cccc(N=CN(C)C)c1.Cl` [Formetanate hydrochloride], the LD50 in the series on Anas platyrhynchos (acute, oral, unspecified, mortality) is 11.5 mg/kg; in the series on Rattus norvegicus (oral, F, mortality) it was 14.8 mg/kg; with Rattus norvegicus (oral, M/F, mortality), 21 mg/kg; in the series on Apis mellifera (dermal), 1.02 µg/piece; with Apis mellifera (duration: 48 hours, oral, unspecified) it was 0.16 µg/piece. Further, the NOEC with Anas platyrhynchos (reproductive) is 15.6 mg/kg-day; with Anas platyrhynchos (setting [2]), 22.7 mg/kg-day; in the series with Pimephales promelas it was 0.48 mg/L; in the series with Daphnia magna, 0.0011 mg/L; with Brassica rapa it was > 500 g/ha; in the series with Colinus virginianus, 15.6 mg/kg-day. In the series on Tagia sp. (chronic/long-term), this molecule gave an NOEC of 1.8 mg/kg. Also, the LC50 was determined as 116 mg/kg-day in the series with Anas platyrhynchos (setting [2]); 2.76 µg/mL in the series with Lepomis macrochirus; 1050 mg/kg with Tagia sp. (acute, duration: 14 days, mortality). In addition, the NOEL in the series on Rattus norvegicus (reproduction developmental, mortality) stood at 22.4 mg/kg-day. In addition, the NOAEL (usually the highest tested level that showed no adverse finding) with Rattus norvegicus (short-term, duration: 28 days, oral, gavage, F, clinical chemistry) is 0.5 mg/kg-day; with Canidae (chronic, duration: 1 years), 0.4 mg/kg-day; in the series on Canidae (short-term, duration: 29 days), 0.4 mg/kg-day. The NOAEC in series [1] is 0.703 mg/L. Moreover, the LR50 in the series on Aphidius rhopalosiphi is 0.21 g/ha.
